Reference: patent publication US11401278B2, “Macrocyclic indole derivatives” (The Broad Institute, Inc., priority 2017, dated 2022)

Target: BCL-XL (Homo sapiens (Human), UniProt Q07817)
Assay: Protein-protein interaction assay BCL-XL/Bad BH3 peptide (BCL-XL assay, TR-FRET)
Format: binding
Settings: His-BCL-XL / Bad BH3 peptide, median
Method in brief: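 His-tagged human BCL-XL (aa 1-212, 1 nM final) was preincubated 10 min at 22 °C with compound (11 concentrations, 0.1 nM–20 μM), then biotinylated Bad BH3 peptide (1 nM) and TR-FRET reagents were added. Incubation: 1 h at 22 °C, then overnight at 4 °C, pH 7 Tris buffer. IC50 from 4-parameter fit of 665/620 ratio.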

Sequence of BCL-XL (Q07817 other isoform, or with tags, fused parts or gaps): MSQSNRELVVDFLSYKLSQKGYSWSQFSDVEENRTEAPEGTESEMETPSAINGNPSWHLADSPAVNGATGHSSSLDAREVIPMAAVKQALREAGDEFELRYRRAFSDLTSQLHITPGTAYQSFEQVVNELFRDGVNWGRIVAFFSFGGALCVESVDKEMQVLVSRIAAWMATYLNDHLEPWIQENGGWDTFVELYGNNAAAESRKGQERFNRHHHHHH

Structure (SMILES) | IC50
CCc1c2c(nn1C)CN(C)S(=O)(=O)CCCn1c(C(=O)O)c(CCCOc3cc(C)c(Cl)c(C)c3)c3ccc(Cl)c-2c31 [Example 22, (rac)-13-Chloro-1-(3-(4-chloro-3,5-dimethylphenoxy)propyl)-12-ethyl-8,11-dimethyl-4,5,6,8,9,11-hexahydropyrazolo[3′,4′:4,5][1,2,8]thiadiazacycloundecino[6,7,8-hi]indole-2-carboxylic acid 7,7-dioxide] | > 20 µM
CCc1c2c(nn1C)CN(C)S(=O)(=O)CCCn1c(C(=O)O)c(CCCOc3cccc4c3CCCC4)c3ccc(Cl)c-2c31 [Example 23, (rac)-13-Chloro-12-ethyl-8,11-dimethyl-1-(3-((5,6,7,8-tetrahydronaphthalen-1-yl)oxy)propyl)-4,5,6,8,9,11-hexahydropyrazolo[3′,4′:4,5][1,2,8]thiadiazacycloundecino[6,7,8-hi]indole-2-carboxylic acid 7,7-dioxide] | > 20 µM
CCc1c2c(nn1C)CN(C)S(=O)(=O)CCCn1c(C(=O)O)c(CCCOc3ccc(F)c4ccccc34)c3ccc(Cl)c-2c31 [Example 24, (rac)-13-Chloro-12-ethyl-1-(34(4-fluoronaphthalen-1-yl)oxy)propyl)-8,11-dimethyl-4,5,6,8,9,11-hexahydropyrazolo[3′,4′:4,5][1,2,8]thiadiazacycloundecino[6,7,8-hi]indole-2-carboxylic acid 7,7-dioxide] | > 20 µM
Cc1c2c(nn1C)CN(C)S(=O)(=O)CCCn1c(C(=O)O)c(CCCOc3ccc(F)c4ccccc34)c3ccc(F)c-2c31 [Example 30, (rac)-13-Fluoro-1-(34(4-fluoronaphthalen-1-yl)oxy)propyl)-8,11,12-trimethyl-5,6,9,11-tetrahydro-4H,8H-pyrazolo[3′,4′:4,5][1]thia[2,8]diazacycloundecino[6,7,8-hi]indole-2-carboxylic acid 7,7-dioxide] | > 20 µM
Cc1c2c(nn1C)CN(C1CC1)S(=O)(=O)CCCn1c(C(=O)O)c(CCCOc3cccc4ccccc34)c3ccc(Cl)c-2c31 [Example 40, (rac)-4-chloro-14-cyclopropyl-2,3-dimethyl-7-[3-(1-naphthyloxy)propyl]-11,12,14,15-tetrahydro-2H,10H-pyrazolo[3′,4′:4,5][1,2,8]thiadiazacycloundecino[6,7,8-hi]indole-8-carboxylic acid 13,13-dioxide] | 19 µM
CCc1c2c(nn1C)CN(CCN1CCOCC1)S(=O)(=O)CCCn1c(C(=O)O)c(CCCOc3cccc4cc(F)ccc34)c3ccc(Cl)c-2c31 [Example 77, (rac)-13-chloro-12-ethyl-1-(3-((6-fluoronaphthalen-1-yl)oxy)propyl)-11-methyl-8-(2-morpholinoethyl)-5,6,9,11-tetrahydro-4H,8H-pyrazolo[3′,4′:4,5][1]thia[2,8]diazacycloundecino[6,7,8-hi]indole-2-carboxylic acid 7,7-dioxide] | > 20 µM
